target: T1, Promotilin (Homo sapiens, UniProt P12872)
T1 sequence (P12872 whole entry): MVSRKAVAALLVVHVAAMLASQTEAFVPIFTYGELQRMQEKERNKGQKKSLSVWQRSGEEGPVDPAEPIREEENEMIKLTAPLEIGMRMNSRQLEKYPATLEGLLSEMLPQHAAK

| SMILES | Ki |
| --- | --- |
| CC[C@H](C)[C@H](NC(=O)[C@@H]1CCCN1C(=O)[C@@H](NC(=O)[C@@H](N)Cc1ccccc1)C(C)C)C(=O)N[C@@H](Cc1ccccc1)C(=O)N[C@H](C(=O)N[C@@H](Cc1ccc(O)cc1)C(=O)NCC(=O)N[C@@H](CCC(=O)O)C(=O)N[C@@H](CC(C)C)C(=O)N[C@@H](CCC(N)=O)C(=O)N[C@@H](CCCNC(=N)N)C(=O)N[C@@H](CCSC)C(=O)N[C@@H](CCC(N)=O)C(=O)N[C@@H](CCC(=O)O)C(=O)N[C@@H](CCCCN)C(=O)N[C@@H](CCC(=O)O)C(=O)N[C@@H](CCCNC(=N)N)C(=O)N[C@@H](CC(N)=O)C(=O)N[C@@H](CCCCN)C(=O)NCC(=O)N[C@@H](CCC(N)=O)C(=O)O)[C@@H](C)O [CAS_52906-92-0] | 2.3 nM |
| CC[C@H](C)[C@H](NC(=O)[C@H](CCCN=C(N)N)NC(=O)[C@H](CCC(N)=O)NC(=O)[C@H](CC(C)C)NC(=O)[C@H](CCC(=O)O)NC(=O)CNC(=O)[C@H](Cc1ccc(O)cc1)NC(=O)[C@@H](NC(=O)[C@H](Cc1ccc(C(=O)c2ccccc2)cc1)NC(=O)[C@@H](NC(=O)[C@@H]1CCCN1C(=O)[C@@H](NC(=O)[C@@H](N)Cc1ccccc1)C(C)C)[C@@H](C)CC)[C@@H](C)O)C(=O)N[C@@H](CCC(N)=O)C(=O)N[C@@H](CCC(=O)O)C(=O)N[C@@H](CCCCN)C(=O)N[C@@H](CCC(=O)O)C(=O)N[C@@H](CCCN=C(N)N)C(=O)N[C@@H](CC(N)=O)C(=O)N[C@@H](CCCCN)C(=O)NCC(=O)N[C@@H](CCC(N)=O)C(=O)O [[L-Bpa5,Ile13]Motilin] | 50 nM |
| CC[C@H](C)[C@H](NC(=O)[C@H](CCCN=C(N)N)NC(=O)[C@H](CCC(N)=O)NC(=O)[C@H](CC(C)C)NC(=O)[C@H](CCC(=O)O)NC(=O)CNC(=O)[C@H](Cc1ccc(O)cc1)NC(=O)[C@@H](NC(=O)[C@@H](Cc1ccc(C(=O)c2ccccc2)cc1)NC(=O)[C@@H](NC(=O)[C@@H]1CCCN1C(=O)[C@@H](NC(=O)[C@@H](N)Cc1ccccc1)C(C)C)[C@@H](C)CC)[C@@H](C)O)C(=O)N[C@@H](CCC(N)=O)C(=O)N[C@@H](CCC(=O)O)C(=O)N[C@@H](CCCCN)C(=O)N[C@@H](CCC(=O)O)C(=O)N[C@@H](CCCN=C(N)N)C(=O)N[C@@H](CC(N)=O)C(=O)N[C@@H](CCCCN)C(=O)NCC(=O)N[C@@H](CCC(N)=O)C(=O)O [[D-Bpa5,Ile13]Motilin] | 420 nM |

Source: BindingDB's records for doi:10.1124/jpet.104.081562 (Mayo Clinic, 2005)
